Measurements taken from ChEMBL document CHEMBL3832761, “MMV Pathogen Box Bioactivity Data” (2017).
≈ marks a conversion by molar mass, not a printed value.

How the values were obtained:
Format in all cases: functional
[1] = test system: Mycobacterium tuberculosis; assay: AntiMycobacterium tuberculosis activity Non-Replicating form: Average MIC90 (uM)
[2] = test system: Mycobacterium tuberculosis; assay: AntiMycobacterium tuberculosis activity 1-week GAST/Fe MIC (uM); conditions: 168 h
[3] = test system: Mycobacterium tuberculosis; assay: AntiMycobacterium tuberculosis activity 2-week GAST/Fe MIC (uM); conditions: 336 h
[4] = test system: Mycobacterium tuberculosis; assay: AntiMycobacterium tuberculosis activity 1-week 7H9/ADC/Tw MIC (uM); conditions: 168 h
[5] = test system: Mycobacterium tuberculosis; assay: AntiMycobacterium tuberculosis activity 2-week 7H9/ADC/Tw MIC (uM); conditions: 336 h
[6] = test system: Mycobacterium tuberculosis; assay: AntiMycobacterium tuberculosis activity 2-week Alamar Blue 7H9/ADC/Tw MIC (uM); conditions: 336 h
[7] = test system: Mycobacterium tuberculosis; assay: AntiMycobacterium tuberculosis activity 1-week 7H9/glucose/BSA/Tx MIC (uM); conditions: 168 h
[8] = test system: Mycobacterium tuberculosis; assay: AntiMycobacterium tuberculosis activity 2-week 7H9/glucose/BSA/Tx MIC (uM); conditions: 336 h
[9] = test system: Mycobacterium tuberculosis; assay: AntiMycobacterium tuberculosis activity 1-week 7H9/DPPC/cholesterol/BSA/Tx MIC (uM); conditions: 168 h
[10] = test system: Mycobacterium tuberculosis; assay: AntiMycobacterium tuberculosis activity 2-week 7H9/DPPC/cholesterol/BSA/Tx MIC (uM); conditions: 336 h
[11] = test system: Mycobacterium tuberculosis; assay: AntiMycobacterium tuberculosis activity 1-week 7H9/cholesterol/BSA/Tx MIC (uM); conditions: 168 h
[12] = test system: Mycobacterium tuberculosis; assay: AntiMycobacterium tuberculosis activity 2-week Alamar Blue 7H9/cholesterol/BSA/Tx MIC (uM); conditions: 336 h
[13] = test system: Mycobacterium tuberculosis; assay: (§1) AntiMycobacterium tuberculosis activity day 10 in 7H9/2.5mM butyrate/pH6/0.1mM nitrite MIC90 (uM); conditions: 240 h
[14] = test system: Mycobacterium tuberculosis; assay: AntiMycobacterium tuberculosis activity day 21 in 7H9/2.5mM butyrate/pH6/0.1mM nitrite MIC90 (uM); conditions: 504 h
[15] = test system: Mycobacterium tuberculosis; assay: as §1; conditions: 240 h; remark: listed apart in the source
[16] = test system: Mycobacterium tuberculosis; assay: AntiMycobacterium tuberculosis activity day 21 MIC99 in 7H9/2.5mM butyrate/pH6/0.1mM nitrite MIC99 (uM); conditions: 504 h
[17] = test system: Mycobacterium tuberculosis; assay: AntiMycobacterium tuberculosis activity Replicating form: Average MIC90 (uM)
HepG2 = assay: HepG2 CC50 (uM) Cytotoxicity; conditions: Homo sapiens

Row | SMILES | MIC90 [1] [µM] | MIC [2] [µM] | MIC [3] [µM] | MIC [4] [µM] | MIC [5] [µM] | MIC [6] [µM] | MIC [7] [µM] | MIC [8] [µM] | MIC [9] [µM] | MIC [10] [µM] | MIC [11] [µM] | MIC [12] [µM] | MIC90 [13] [µM] | MIC90 [14] [µM] | MIC90 [15] [µM] | MIC [16] [µM] | MIC90 [17] [µM] | CC50 (HepG2) [µM]
1 | CCCCS(=O)(=O)Nc1ccc2cnn(C)c2c1 | 1.39 (≈ 0.372 µg/mL) | 0.3 (≈ 0.0802 µg/mL) | 0.6 (≈ 0.16 µg/mL) | 0.6 (≈ 0.16 µg/mL) | 0.6 (≈ 0.16 µg/mL) | 0.6 (≈ 0.16 µg/mL) | 0.39 (≈ 0.104 µg/mL) | 0.78 (≈ 0.209 µg/mL) | 0.39 (≈ 0.104 µg/mL) | 0.6 (≈ 0.16 µg/mL) | 0.6 (≈ 0.16 µg/mL) | 2.3 (≈ 0.615 µg/mL) | 12.5 (≈ 3.34 µg/mL) | 50 (≈ 13.4 µg/mL) | > 50 | 50 (≈ 13.4 µg/mL) | 0.69 (≈ 0.184 µg/mL) | > 100
2 | COC(=O)c1c(NC(=O)c2c(F)c(F)c(F)c(F)c2F)sc2c1CCCCC2 | 3.8 (≈ 1.59 µg/mL) | 0.78 (≈ 0.327 µg/mL) | 0.78 (≈ 0.327 µg/mL) | 1.2 (≈ 0.503 µg/mL) | 2.3 (≈ 0.965 µg/mL) | 1.56 (≈ 0.654 µg/mL) | 0.78 (≈ 0.327 µg/mL) | 1.2 (≈ 0.503 µg/mL) | 0.6 (≈ 0.252 µg/mL) | 1.56 (≈ 0.654 µg/mL) | 0.6 (≈ 0.252 µg/mL) | 1.56 (≈ 0.654 µg/mL) | 1.5 (≈ 0.629 µg/mL) | 3.1 (≈ 1.3 µg/mL) | 3.1 (≈ 1.3 µg/mL) | 3.1 (≈ 1.3 µg/mL) | 0.86 (≈ 0.361 µg/mL) | 7.5
3 | COc1ccc(C2(C(=O)Nc3ccc(Br)cc3)CCCC2)cc1 | 46.5 (≈ 17.4 µg/mL) | 19 (≈ 7.11 µg/mL) | 19 (≈ 7.11 µg/mL) | 19 (≈ 7.11 µg/mL) | 12.5 (≈ 4.68 µg/mL) | 12.5 (≈ 4.68 µg/mL) | 12.5 (≈ 4.68 µg/mL) | 12.5 (≈ 4.68 µg/mL) | 12.5 (≈ 4.68 µg/mL) | 9.4 (≈ 3.52 µg/mL) | 9.4 (≈ 3.52 µg/mL) | 12.5 (≈ 4.68 µg/mL) | 50 (≈ 18.7 µg/mL) | 50 (≈ 18.7 µg/mL) | > 50 | 50 (≈ 18.7 µg/mL) | 26.5 (≈ 9.93 µg/mL) | > 100
4 | COc1ccc(-c2nc(-c3cccc(NC(=O)Cc4ccc(F)cc4)c3)no2)cc1OC | 1.61 (≈ 0.698 µg/mL) | 1.56 (≈ 0.676 µg/mL) | 1.56 (≈ 0.676 µg/mL) | 0.3 (≈ 0.13 µg/mL) | 0.39 (≈ 0.169 µg/mL) | 0.39 (≈ 0.169 µg/mL) | 0.2 (≈ 0.0867 µg/mL) | 0.2 (≈ 0.0867 µg/mL) | 0.78 (≈ 0.338 µg/mL) | 0.78 (≈ 0.338 µg/mL) | 0.6 (≈ 0.26 µg/mL) | 0.6 (≈ 0.26 µg/mL) | 3.12 (≈ 1.35 µg/mL) | 6.25 (≈ 2.71 µg/mL) | 3.12 (≈ 1.35 µg/mL) | 6.25 (≈ 2.71 µg/mL) | 0.39 (≈ 0.169 µg/mL) | > 100
5 | CCc1ccc([C@@H]2C[C@H](C(F)(F)F)n3ncc(C(=O)NCc4ccc(OC)cc4)c3N2)cc1 | 1.13 (≈ 0.518 µg/mL) | 0.1 (≈ 0.0458 µg/mL) | 0.1 (≈ 0.0458 µg/mL) | 0.78 (≈ 0.358 µg/mL) | 1.56 (≈ 0.715 µg/mL) | 1.56 (≈ 0.715 µg/mL) | 0.6 (≈ 0.275 µg/mL) | 0.78 (≈ 0.358 µg/mL) | 0.2 (≈ 0.0917 µg/mL) | 0.3 (≈ 0.138 µg/mL) | 0.2 (≈ 0.0917 µg/mL) | 0.39 (≈ 0.179 µg/mL) | 6.25 (≈ 2.87 µg/mL) | 12.5 (≈ 5.73 µg/mL) | > 50 | > 50 | 0.24 (≈ 0.11 µg/mL) | 50.6
6 | Cc1cc(OCC(=O)NCc2ccccc2)c2cc(Br)ccc2n1 | 21.2 (≈ 8.17 µg/mL) | 0.2 (≈ 0.0771 µg/mL) | 0.39 (≈ 0.15 µg/mL) | 50 (≈ 19.3 µg/mL) | > 50 | 4.7 (≈ 1.81 µg/mL) | 37 (≈ 14.3 µg/mL) | 50 (≈ 19.3 µg/mL) | 3.13 (≈ 1.21 µg/mL) | 25 (≈ 9.63 µg/mL) | 2.3 (≈ 0.886 µg/mL) | 1.56 (≈ 0.601 µg/mL) | 1.5 (≈ 0.578 µg/mL) | 6.25 (≈ 2.41 µg/mL) | 25 (≈ 9.63 µg/mL) | > 50 | > 100 | 31
7 | CCCCOC(=O)Nc1cc2nc(C3CCCCC3)[nH]c2cc1N1CCCC1 | 97.3 (≈ 37.4 µg/mL) | 0.1 (≈ 0.0385 µg/mL) | 0.15 (≈ 0.0577 µg/mL) | 0.05 (≈ 0.0192 µg/mL) | 0.2 (≈ 0.0769 µg/mL) | 0.2 (≈ 0.0769 µg/mL) | 0.2 (≈ 0.0769 µg/mL) | 0.39 (≈ 0.15 µg/mL) | 0.15 (≈ 0.0577 µg/mL) | 0.2 (≈ 0.0769 µg/mL) | 0.1 (≈ 0.0385 µg/mL) | 0.2 (≈ 0.0769 µg/mL) | 0.39 (≈ 0.15 µg/mL) | 0.78 (≈ 0.3 µg/mL) | 0.78 (≈ 0.3 µg/mL) | 0.78 (≈ 0.3 µg/mL) | 0.3 (≈ 0.115 µg/mL) | 26.8
8 | COc1ccc2nc(C)cc(OCC(=O)NCc3ccccc3)c2c1 | 27.1 (≈ 9.12 µg/mL) | 0.78 (≈ 0.262 µg/mL) | 1.56 (≈ 0.525 µg/mL) | > 50 | > 50 | 6.25 (≈ 2.1 µg/mL) | > 50 | > 50 | 12.5 (≈ 4.2 µg/mL) | > 50 | > 50 | 3.13 (≈ 1.05 µg/mL) | > 50 | > 50 | > 50 | > 50 | > 100 | > 100
9 | Brc1c(-c2ccc3c(c2)OCO3)nc2ncccn12 | 27.8 (≈ 8.84 µg/mL) | 0.2 (≈ 0.0636 µg/mL) | 0.3 (≈ 0.0954 µg/mL) | 25 (≈ 7.95 µg/mL) | 37 (≈ 11.8 µg/mL) | 4.7 (≈ 1.5 µg/mL) | 25 (≈ 7.95 µg/mL) | 37 (≈ 11.8 µg/mL) | 3.13 (≈ 0.996 µg/mL) | 25 (≈ 7.95 µg/mL) | 1.56 (≈ 0.496 µg/mL) | 2.3 (≈ 0.732 µg/mL) | 1.5 (≈ 0.477 µg/mL) | 12.5 (≈ 3.98 µg/mL) | > 50 | 50 (≈ 15.9 µg/mL) | 45.1 (≈ 14.4 µg/mL) | > 100
